The compounds below were run against T1, human MGL from HeLa cells (Homo sapiens, UniProt Q99685) (assay: In vitro MGL activity assay: [glycerol-1,3-3H]-oleyl glycerol cleavage by MGL from HeLa cells). Conditions: 300 nM [Glycerol-1,3-3H]-oleyl glycerol, one hour.
T1 construct: combining endogenously expressed MGL from HeLa cells with test compounds; endogenous in cells; host or cells: HeLa cells / cell homogenates
T1 sequence (Q99685 1-303): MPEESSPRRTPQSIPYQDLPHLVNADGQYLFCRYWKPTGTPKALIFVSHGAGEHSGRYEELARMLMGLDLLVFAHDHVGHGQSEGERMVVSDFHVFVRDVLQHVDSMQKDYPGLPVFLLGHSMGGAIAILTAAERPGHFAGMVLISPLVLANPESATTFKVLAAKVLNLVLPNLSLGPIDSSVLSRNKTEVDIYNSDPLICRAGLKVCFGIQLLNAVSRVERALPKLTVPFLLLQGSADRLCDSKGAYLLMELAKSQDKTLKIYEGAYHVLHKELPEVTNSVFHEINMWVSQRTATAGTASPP
Type: biochemical
Source text: MGL is the predominant hydrolase in HeLa cells/cell homogenates.

Row | IC50 [nM] | SMILES
1 | 4.26 | Cc1nn2ccccc2c1C(=O)N1CCc2c(nn(C)c2-c2cc(F)c(F)c(F)c2)[C@@H]1C [Example 382, [(7S)-2,7-Dimethyl-3-(3,4,5-trifluorophenyl)-5,7-dihydro-4H-pyrazolo[3,4-c]pyridin-6-yl]-(2-methylpyrazolo[1,5-a]pyridin-3-yl)methanone]
2 | 5.04 | Cc1cc(F)cc(-c2c3c(nn2C)[C@H](C)N(C(=O)c2c(C)nc4ccccn24)CC3)c1 [Example 396, [(7S)-3-(3-Fluoro-5-methyl-phenyl)-2,7-dimethyl-5,7-dihydro-4H-pyrazolo[3,4-c]pyridin-6-yl]-(2-methylimidazo[1,2-a]pyridin-3-yl)methanone]
3 | 165 | Cc1cn2nc(C(=O)N3CCc4c(nn(C)c4-c4cc(F)c(F)c(F)c4)[C@@H]3C)ccc2n1 [Example 453, [(7S)-2,7-Dimethyl-3-(3,4,5-trifluorophenyl)-5,7-dihydro-4H-pyrazolo[3,4-c]pyridin-6-yl]-(2-methylimidazo[1,2-b]pyridazin-6-yl)methanone]
4 | 1.84 | C[C@H]1c2nn(C)c(-c3cc(F)c(F)c(F)c3)c2CCN1C(=O)c1cccc2c1oc(=O)n2C [Example 589, 7-[(7S)-2,7-dimethyl-3-(3,4,5-trifluorophenyl)-5,7-dihydro-4H-pyrazolo[3,4-c]pyridine-6-carbonyl]-3-methyl-1,3-benzoxazol-2-one]
5 | 11.7 | C[C@H]1c2nn(C)c(-c3cc(F)c(F)c(F)c3)c2CCN1C(=O)c1cnc2cccc(F)c2c1 [Example 545, [(7S)-2,7-Dimethyl-3-(3,4,5-trifluorophenyl)-5,7-dihydro-4H-pyrazolo[3,4-c]pyridin-6-yl]-(5-fluoro-3-quinolyl)methanone]
6 | 40.4 | C[C@H]1c2nn(C)c(-c3cc(F)c(F)c(F)c3)c2CCN1C(=O)c1cnn2c1CCCC2 [Example 552, [(7S)-2,7-Dimethyl-3-(3,4,5-trifluorophenyl)-5,7-dihydro-4H-pyrazolo[3,4-c]pyridin-6-yl]-(4,5,6,7-tetrahydropyrazolo[1,5-a]pyridin-3-yl)methanone]

Same assay, conditions: 300 nM [Glycerol-1,3-3H]-oleyl glycerol, one hour incubation

Row | IC50 [nM] | SMILES
7 | 141 | Cn1nc2c(c1-c1ccccc1)CCN(C(=O)c1csc3ccccc13)C2 [Example 40, Benzo[b]thiophen-3-yl(2-methyl-3-phenyl-2,4,5,7-tetrahydro-6H-pyrazolo[3,4-c]pyridin-6-yl)methanone]
8 | 103 | C[C@H]1c2nn(C)c(-c3cc(F)cc(F)c3)c2CCN1C(=O)c1ccc2ncc(C(F)(F)F)cc2c1 [Example 165, (S)-(3-(3,5-Difluorophenyl)-2,7-dimethyl-2,4,5,7-tetrahydro-6H-pyrazolo[3,4-c]pyridin-6-yl)(3-(trifluoromethyl)quinolin-6-yl)methanone]
9 | 1870 | C[C@H]1c2nn(C)c(-c3cc(F)c(F)c(F)c3)c2CCN1C(=O)c1ccccc1-n1cnc(C(F)(F)F)n1 [Example 282, [(7S)-2,7-Dimethyl-3-(3,4,5-trifluorophenyl)-5,7-dihydro-4H-pyrazolo[3,4-c]pyridin-6-yl]-[2-[3-(trifluoromethyl)-1,2,4-triazol-1-yl]phenyl]methanone]
10 | 6.24 | C[C@H]1c2nn(C)c(-c3cc(Cl)cc(Cl)c3)c2CCN1C(=O)c1ccc2nccnc2c1 [Example 175, (S)-(3-(3,5-Dichlorophenyl)-2,7-dimethyl-2,4,5,7-tetrahydro-6H-pyrazolo[3,4-c]pyridin-6-yl)(quinoxalin-6-yl)methanone]
11 | 791 | Cn1nc2c(c1-c1cc3ccccc3[nH]1)CCN(C(=O)c1ccc3ncccc3c1)C2 [Example 104, (3-(1H-Indol-2-yl)-2-methyl-2,4,5,7-tetrahydro-6H-pyrazolo[3,4-c]pyridin-6-yl)(quinolin-6-yl)methanone]
12 | 1.72 | C[C@H]1c2nn(C)c(-c3cc(F)cc(F)c3)c2CCN1C(=O)c1cccc(OCCF)c1F [Example 141, (S)-(3-(3,5-Difluorophenyl)-2,7-dimethyl-2,4,5,7-tetrahydro-6H-pyrazolo[3,4-c]pyridin-6-yl)(2-fluoro-3-(2-fluoroethoxy)phenyl)methanone]
13 | 550 | C[C@@H]1c2nn(C(F)F)c(-c3cc(F)c(F)c(F)c3)c2CCN1C(=O)c1ccc2ncccc2c1 [Example 233, (R)-(2-(Difluoromethyl)-7-methyl-3-(3,4,5-trifluorophenyl)-2,4,5,7-tetrahydro-6H-pyrazolo[3,4-c]pyridin-6-yl)(quinolin-6-yl)methanone]
14 | 130 | C[C@H]1c2nn(C)c(-c3cc(F)c(F)c(F)c3)c2CCN1C(=O)c1cn(C)c2cccnc12 [Example 220, (S)-(2,7-Dimethyl-3-(3,4,5-trifluorophenyl)-2,4,5,7-tetrahydro-6H-pyrazolo[3,4-c]pyridin-6-yl)(1-methyl-1H-pyrrolo[3,2-b]pyridin-3-yl)methanone]
15 | 9.52 | Cc1nc2ccc(C(=O)N3CCc4c(nn(C)c4-c4cccc(Cl)c4)[C@@H]3C)cc2o1 [Example 125, (S)-(3-(3-Chlorophenyl)-2,7-dimethyl-2,4,5,7-tetrahydro-6H-pyrazolo[3,4-c]pyridin-6-yl)(2-methylbenzo[d]oxazol-6-yl)methanone]
16 | 1400 | Cc1cccc(C(=O)N2CCc3c(nn(C)c3-c3ccccc3)C2)c1N [Example 17, (2-Amino-3-methylphenyl)(2-methyl-3-phenyl-2,4,5,7-tetrahydro-6H-pyrazolo[3,4-c]pyridin-6-yl)methanone]
